From ChEMBL document CHEMBL1201862, “PubChem BioAssay data set” (2004) come the findings set out here.

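The compound was tested at five concentrations on cells cultured in 96-well plates, with a 48-hour exposure period. The concentration for 50% growth inhibition is given as GI50.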 Active and inactive are the calls of the source. Cut-off read from the data, not from the text of the source: active = GI50 up to about 1.1 µM and inactive = higher.

Among the test systems are A498; BT-549; EKVX; HCC 2998; IGROV-1; MCF7; MOLT-4; NCI-H23; NCI-H460; OVCAR-8; RPMI-8226; RXF 393; SF-295; SK-MEL-2; SN12C; SR; TK-10; UACC-62; KM12.
What all share (assay): NCI tumour cell line growth inhibition, 48 h

On to `N/C(=N/O)c1cn(C2OC(CO)C(O)C2O)c2ncnc(NO)c12` (stereo not given), for which the GI50 in the assay on A498 was 0.425 µM (active); with BT-549, 0.426 µM (active); in the assay with EKVX it was 0.422 µM (active); in the assay with HCC 2998, 0.147 µM (active); with IGROV-1 it was 0.451 µM (active); in the assay with MCF7, 0.144 µM (active). For the same compound, the GI50 with MOLT-4 is 0.0871 µM (active); with NCI-H23, 0.216 µM (active); in the assay with NCI-H460 it was 0.112 µM (active); in the assay with OVCAR-8, 0.242 µM (active); in the assay with RPMI-8226 it was 0.146 µM (active); with RXF 393 it was 0.356 µM (active). Besides, the GI50 is 0.773 µM (active) with SF-295; < 0.0131 µM (active) with SK-MEL-2; 0.0593 µM (active) in the assay with SN12C; 0.0356 µM (active) in the assay on SR; 0.0865 µM (active) in the assay on TK-10; 0.362 µM (active) in the assay on UACC-62.

Regarding `COc1cc(/C=C2/SC(c3ccccc3)N(c3ccc(NC(C)=O)cc3)C2=O)cc(OC)c1OC` (stereo not given), the GI50 in the assay on A498 is > 100 µM (inactive); in the assay with BT-549 it was > 100 µM (inactive); with EKVX it was > 100 µM (inactive); in the assay on HCC 2998, > 100 µM (inactive); in the assay with KM12, 91.4 µM (inactive); in the assay with MCF7, 76.9 µM (inactive). The GI50 is 31.3 µM (inactive) with MOLT-4; > 100 µM (inactive) in the assay on NCI-H23; > 100 µM (inactive) in the assay on NCI-H460; > 100 µM (inactive) with OVCAR-8; 36.8 µM (inactive) in the assay with RPMI-8226; 64.4 µM (inactive) in the assay on RXF 393. The GI50 is 61.2 µM (inactive) in the assay on SF-295; > 100 µM (inactive) in the assay with SK-MEL-2; > 100 µM (inactive) in the assay with SN12C; 30.8 µM (inactive) in the assay with SR; > 100 µM (inactive) with TK-10; > 100 µM (inactive) in the assay on UACC-62.

Take `CC(O)=NC(Cc1ccc2ccccc2c1)C(O)=NC(Cc1ccc(Cl)cc1)C(O)=NC(Cc1c[nH]c2ccccc12)C(O)=NC(CO)C(O)=NC(Cc1ccc(O)cc1)C(O)=NC(CCCN=C(N)N)C(O)=NC(CC(C)C)C(O)=NC(CCCN=C(N)N)C(=O)N1CCCC1C(O)=NC(C)C(=N)O` (stereo not given): the GI50 is 37.6 µM (inactive) in the assay on A498; 12.1 µM (inactive) with BT-549; 39.5 µM (inactive) in the assay on EKVX; 63.4 µM (inactive) with HCC 2998; 33.7 µM (inactive) with IGROV-1; 41.1 µM (inactive) in the assay with KM12. The GI50 in the assay on MCF7 is 43.8 µM (inactive); in the assay on MOLT-4, > 100 µM (inactive); in the assay on NCI-H23, 31.3 µM (inactive); with NCI-H460 it was 54.7 µM (inactive); in the assay on OVCAR-8 it was 27.1 µM (inactive); in the assay with RPMI-8226, > 100 µM (inactive). Besides, the GI50 in the assay with RXF 393 is 37.1 µM (inactive); in the assay with SF-295 it was 27.9 µM (inactive); in the assay on SK-MEL-2, 13.4 µM (inactive); in the assay on SN12C, 37.5 µM (inactive); in the assay with SR it was > 100 µM (inactive); with TK-10 it was 30.9 µM (inactive). Moreover, the GI50 with UACC-62 was 45.6 µM (inactive).

As to `CC1(CCC2C=CCC2)CCCNC1=S` (stereo not given), the GI50 with A498, with BT-549, in the assay on EKVX, with HCC 2998, in the assay on IGROV-1 and with KM12 was > 10 µM (inactive) each time. For the same compound, the GI50 in the assay with MCF7, in the assay with MOLT-4, in the assay on NCI-H23, with NCI-H460, with OVCAR-8 and in the assay on RPMI-8226 was > 10 µM (inactive) in each case. Also, the GI50 in the assay on RXF 393, with SF-295, with SK-MEL-2, with SN12C, in the assay on SR and in the assay on TK-10 was > 10 µM (inactive) in each case. For the same compound, in the assay on UACC-62, the GI50 is > 10 µM (inactive).

Take `CCOC(=O)NNC(=O)NCc1ccccc1CNC(=O)NNC(=O)OCC`: the GI50 in the assay with A498, in the assay with BT-549, in the assay with EKVX, in the assay on HCC 2998, in the assay on IGROV-1 and in the assay with KM12 was > 100 µM (inactive) throughout. Also, the GI50 in the assay on MCF7, in the assay on MOLT-4, in the assay on NCI-H23, in the assay on NCI-H460, in the assay with OVCAR-8 and with RPMI-8226 was > 100 µM (inactive) each time. The GI50 in the assay with RXF 393, with SK-MEL-2, in the assay with SN12C, with SR, in the assay with TK-10 and in the assay on UACC-62 was > 100 µM (inactive) each time.

In the case of `COC(CN(C(=O)c1ccccc1)C1CCC2(SCCS2)c2[nH]c3ccccc3c21)OC` (stereo not given), the GI50 was 46.6 µM (inactive) in the assay with A498; 13.7 µM (inactive) in the assay on BT-549; 19.6 µM (inactive) in the assay with EKVX; 30.5 µM (inactive) in the assay with HCC 2998; 40.6 µM (inactive) with IGROV-1; 27.5 µM (inactive) in the assay on KM12. In addition, the GI50 in the assay on MCF7 is 32.1 µM (inactive); in the assay with MOLT-4, 14.6 µM (inactive); in the assay with NCI-H23, 58.6 µM (inactive); with NCI-H460 it was 33.8 µM (inactive); in the assay with OVCAR-8 it was 34.9 µM (inactive); in the assay on RPMI-8226, 29.6 µM (inactive). Moreover, the GI50 in the assay on RXF 393 is 20.3 µM (inactive); with SF-295, 3.01 µM (inactive); in the assay on SK-MEL-2, 32.6 µM (inactive); in the assay on SN12C it was 24.2 µM (inactive); with SR, 30.4 µM (inactive); in the assay with TK-10, 32.7 µM (inactive).

For `Cc1cn(CC2=NCC(C)(C)N2)c(=O)[nH]c1=O`, the GI50 with A498, in the assay on BT-549, with EKVX, in the assay on HCC 2998, in the assay with IGROV-1 and in the assay with MCF7 was > 100 µM (inactive) each time. Also, the GI50 in the assay on MOLT-4, in the assay with NCI-H23, with NCI-H460, in the assay on OVCAR-8, in the assay on RPMI-8226 and in the assay on RXF 393 was > 100 µM (inactive) in each case. For the same compound, the GI50 with SF-295, with SK-MEL-2, in the assay on SN12C, in the assay with SR, with TK-10 and in the assay on UACC-62 was > 100 µM (inactive) each time.

Turning to `C(=N\c1ccc(-c2nc3ccccc3[nH]2)cc1)/c1ccc[nH]1`, the GI50 in the assay on A498 was 69.5 µM (inactive); in the assay with BT-549, > 100 µM (inactive); with EKVX, > 100 µM (inactive); in the assay on HCC 2998, 29.5 µM (inactive); with IGROV-1 it was > 100 µM (inactive); in the assay with KM12, 44.6 µM (inactive). Besides, the GI50 with MCF7 was 25.7 µM (inactive); with MOLT-4 it was 28.8 µM (inactive); in the assay with NCI-H23, > 100 µM (inactive); in the assay with OVCAR-8 it was 83.9 µM (inactive); in the assay on RPMI-8226 it was 37.8 µM (inactive); in the assay on RXF 393 it was 76.2 µM (inactive). Also, the GI50 with SK-MEL-2 was > 100 µM (inactive); in the assay with SN12C it was 63.2 µM (inactive); with SR, 33.1 µM (inactive); in the assay with TK-10, > 100 µM (inactive); in the assay on UACC-62, 55.3 µM (inactive).
